These results are taken from patent US7968577B2 (Bristol-Myers Squibb Company, priority 2006, dated 2011).

Each structure is given as a SMILES string.

The assay deals with T1, human glucocorticoid receptor (Homo sapiens, UniProt P04150).
T1 construct: purified human recombinant full-length glucocorticoid receptor; purchased Invitrogen Part #2893
T1 sequence (P04150 1-777): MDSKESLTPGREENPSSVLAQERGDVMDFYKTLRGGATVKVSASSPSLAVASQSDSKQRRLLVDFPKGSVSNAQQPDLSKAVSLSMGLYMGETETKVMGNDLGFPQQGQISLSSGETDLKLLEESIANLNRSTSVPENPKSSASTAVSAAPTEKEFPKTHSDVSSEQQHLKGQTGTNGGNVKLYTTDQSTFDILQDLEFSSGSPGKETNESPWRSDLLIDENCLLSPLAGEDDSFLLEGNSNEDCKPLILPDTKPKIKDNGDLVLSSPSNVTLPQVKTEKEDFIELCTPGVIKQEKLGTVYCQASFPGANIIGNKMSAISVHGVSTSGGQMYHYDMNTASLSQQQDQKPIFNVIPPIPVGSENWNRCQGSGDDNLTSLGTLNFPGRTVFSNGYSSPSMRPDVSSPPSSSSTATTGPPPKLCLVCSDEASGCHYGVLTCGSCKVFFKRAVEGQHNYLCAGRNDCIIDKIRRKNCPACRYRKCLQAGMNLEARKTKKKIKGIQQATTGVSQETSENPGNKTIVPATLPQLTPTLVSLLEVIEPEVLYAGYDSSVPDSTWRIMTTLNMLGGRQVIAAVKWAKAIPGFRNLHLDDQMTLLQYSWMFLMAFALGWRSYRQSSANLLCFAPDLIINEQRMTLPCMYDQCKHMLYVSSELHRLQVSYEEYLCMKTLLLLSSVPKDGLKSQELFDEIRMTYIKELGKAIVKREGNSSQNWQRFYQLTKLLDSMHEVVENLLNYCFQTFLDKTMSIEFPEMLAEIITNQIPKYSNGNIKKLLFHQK
Description: Glucocorticoid Receptor Binding Assay (I), fluorescence polarization competitor kit (Fluormone GS Red). The settings on record: GR Binding Assay (I). On the procedure: Glucocorticoid Receptor Binding Assay (I)^a
In order to assess the affinity of test compounds for the human glucocorticoid receptor, a commercially available kit was used (Glucocorticoid Receptor Competitor Assay Kit, Invitrogen Part #2893). Briefly, purified human recombinant full-length glucocorticoid receptor (2 nM) was mixed with fluorescently labeled glucocorticoid (1 nM Fluormone GS Red) in the presence or absence of test compound. After two hour incubation at room temperature in the dark, the fluorescence polarization (FP) of the samples was measured. […] Test compounds were analyzed in the concentration range from 8.5 E-05 μM to 5 μM.
Consider `CC(C)CC(c1ccc(-c2ccc(C(=O)N3CCOCC3)cc2)cc1)C(C)(C)C(=O)Nc1nncs1` (stereo not drawn) [Example 427, 2,2,5-trimethyl-3-(4′-(4-morpholinylcarbonyl)-4-biphenylyl)-N-1,3,4-thiadiazol-2-ylhexanamide], for which affinity was put at a Ki of 9.28 nM. `CCCc1ccc(-c2ccc(C(c3ccccc3)C(C)(C)C(=O)Nc3nncs3)cc2)cc1` (stereo not drawn) [Example 384, 2,2-dimethyl-3-phenyl-3-(4′-propyl-4-biphenylyl)-N-1,3,4-thiadiazol-2-ylpropanamide] showed a Ki of 6.43 nM. With `CC(C)Cc1ccc(-c2ccc(C(c3ccccc3)C(C)(C)C(=O)Nc3nncs3)cc2)cc1` (stereo not drawn) [Example 383, 2,2-dimethyl-3-(4′-(2-methylpropyl)-4-biphenylyl)-3-phenyl-N-1,3,4-thiadiazol-2-ylpropanamide], the affinity, expressed as Ki, was 9.18 nM. `CC(=O)c1ccc(-c2ccc(C(CC(C)C)C(C)(C)C(=O)Nc3nncs3)cc2)cc1` (stereo not drawn) [Example 438, 3-(4′-acetyl-4-biphenylyl)-2,2,5-trimethyl-N-1,3,4-thiadiazol-2-ylhexanamide] gave a Ki of 12 nM. In the case of `CC(C)CC(c1ccc(N2CCOCC2)cc1)C(C)(C)C(=O)Nc1nncs1` (stereo not drawn) [Example 390, 2,2,5-trimethyl-3-(4-(4-morpholinyl)phenyl)-N-1,3,4-thiadiazol-2-ylhexanamide] it was 5.41 nM. In the case of `CC(C)(C(=O)Nc1nncs1)C(c1ccccc1)c1ccc(-c2ccc3c(c2)CCO3)cc1` (stereo not drawn) [Example 415, 3-(4-(2,3-dihydro-1-benzofuran-5-yl)phenyl)-2,2-dimethyl-3-phenyl-N-1,3,4-thiadiazol-2-ylpropanamide] it was 6.08 nM; in that of `CC(C)(C(=O)Nc1nncs1)C(c1ccccc1)c1ccc(Br)cc1` (stereo not drawn) [Example 324, 3-(4-bromophenyl)-2,2-dimethyl-3-phenyl-N-1,3,4-thiadiazol-2-ylpropanamide], 9.36 nM; in that of `COc1ccc([C@@H](c2ccccc2)C(C)(C)C(=O)Nc2nncs2)cc1Br` [Example 292, (3R)-3-(3-bromo-4-(methyloxy)phenyl)-2,2-dimethyl-3-phenyl-N-1,3,4-thiadiazol-2-ylpropanamide], 24.5 nM.

As to `COc1ccc(C(c2ccccc2)C(C)(C)C(=O)Nc2nncs2)cc1C` (stereo not drawn) [Example 293, 2,2-dimethyl-3-(3-methyl-4-(methyloxy)phenyl)-3-phenyl-N-1,3,4-thiadiazol-2-ylpropanamide], the affinity, expressed as Ki, was 9.85 nM. To `CC(C)CC(c1ccc(-c2ccc(-c3ccccc3)cc2)cc1)C(C)(C)C(=O)Nc1nncs1` (stereo not drawn) [Example 433, 2,2,5-trimethyl-3-(1,1′:4′,1″-terphenyl-4-yl)-N-1,3,4-thiadiazol-2-ylhexanamide] belongs 12.4 nM; to `COc1ccc(C(c2ccccc2)C(C)(C)C(=O)Nc2nncs2)cc1C` (single isomer, unassigned) [Example 294, 2,2-dimethyl-3-(3-methyl-4-(methyloxy)phenyl)-3-phenyl-N-1,3,4-thiadiazol-2-ylpropanamide], 9.22 nM; to `CC(=O)c1cccc(-c2ccc(C(c3ccccc3)C(C)(C)C(=O)Nc3nncs3)cc2)c1` (stereo not drawn) [Example 413, 3-(3′-acetyl-4-biphenylyl)-2,2-dimethyl-3-phenyl-N-1,3,4-thiadiazol-2-ylpropanamide], 110 nM.

As to `COc1ccc(-c2ccc(C(CC(C)C)C(C)(C)C(=O)Nc3nncs3)cc2)cc1` (stereo not drawn) [Example 394, 2,2,5-trimethyl-3-(4′-(methyloxy)-4-biphenylyl)-N-1,3,4-thiadiazol-2-ylhexanamide], the affinity, expressed as Ki, was 9.28 nM. The compound `O=C(Nc1nccs1)C1(C(c2ccccc2)c2ccccc2)CCCCC1` [Example 156, 1-(diphenylmethyl)-N-1,3-thiazol-2-ylcyclohexanecarboxamide] returned an inhibition constant (Ki) of 36.9 nM.

For `CN(C)C(=O)c1ccc(-c2ccc(C(c3ccccc3)C(C)(C)C(=O)Nc3nncs3)cc2)cc1` (stereo not drawn) [Example 379, 4′-(2,2-dimethyl-3-oxo-1-phenyl-3-(1,3,4-thiadiazol-2-ylamino)propyl)-N,N-dimethyl-4-biphenylcarboxamide], the Ki came to 1.24 nM.
